Patent US5668165A, “Small molecule inhibition of RNA/ligand binding” (Scriptgen Pharmaceuticals, Inc., priority 1995, dated 1997)
Read-outs that look alike come from different tables or passages of the source.

Legend:
[1] = test system: binding of Rev to the RRE (67-nt RNA probe containing a high affinity Rev-binding site); design: species or system HIV; details: for ability to inhibit Rev binding (inhibitory at any concentration tested): 67-nt 32P-labeled RNA probe, gel mobility shift
Experimental: To test whether antibiotics can block binding of Rev to the RRE, a 67-nt ^32 P-labeled RNA probe containing a high affinity Rev-binding site was incubated with purified E. coli derived Rev protein in the presence of various antibiotics. Binding of Rev to the RNA probe was quanitified by an RNA gel mobility shift assay.

[2] = molecular target: T1, binding of ATF-2 to the HTLV-1 LTR (Homo sapiens, UniProt P15336); experiment: ATF-2 DNA binding, gel mobility shift assay; details: 100 μM
T1 sequence (P15336 1-505): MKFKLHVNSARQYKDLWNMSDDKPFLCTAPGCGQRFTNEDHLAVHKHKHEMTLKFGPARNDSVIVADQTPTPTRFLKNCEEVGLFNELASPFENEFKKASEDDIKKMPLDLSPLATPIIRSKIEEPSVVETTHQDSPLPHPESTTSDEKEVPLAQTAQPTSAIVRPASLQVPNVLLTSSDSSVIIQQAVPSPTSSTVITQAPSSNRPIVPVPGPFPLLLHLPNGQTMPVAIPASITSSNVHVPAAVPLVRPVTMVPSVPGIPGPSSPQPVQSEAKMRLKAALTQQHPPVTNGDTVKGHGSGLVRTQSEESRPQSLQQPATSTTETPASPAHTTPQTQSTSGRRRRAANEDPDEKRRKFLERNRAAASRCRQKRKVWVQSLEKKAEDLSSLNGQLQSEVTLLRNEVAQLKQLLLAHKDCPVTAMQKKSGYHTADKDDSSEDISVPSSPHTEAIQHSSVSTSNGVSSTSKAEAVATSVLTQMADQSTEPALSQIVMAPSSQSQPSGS
Experimental: In these studies, the DNA binding activities of two eukaryotic transcription factors, Oct-1 and ATF-2, were analyzed using a gel mobility shift assay. Purified Oct-1 was inculcated in the absence or presence of 100 μM neomycin B with a ^32 P-labelled 70-nt DNA probe containing an HSV ICPO octamer binding site (Stern and Her, Genes and Development, 5:2555-2566 (1991)). Additionally, the effect of 100 μM neomycin B on the binding of ATF-2 to a 35-nt DNA probe homologous to nucleotides -251 to -232 of the HTLV-1 LTR was analyzed.

67-nt RRE RNA = experiment: Chemical footprinting (DMS/kethoxal) of the RRE; assay type: binding, HIV; details: 0.1, 1.0 and 10 μM; DMS or kethoxal
Experimental: The experiments described below were performed to determine whether or not neomycin B complexes directly with the RRE and thus blocks Rev binding. To this end, chemical footprinting experiments were performed. The 67-nt RRE RNA was incubated alone, with Rev, or with increasing concentrations of neomycin B, tobramycin, or kanamycin A, (0.1, 1.0 and 10 μM). The incubation mixtures were then treated with either dimethyl sulfate (DMS), which methylates adenosine at N1 and cytosine at N3, or with kethoxal, which modifies N1 and N2 of guanosine. Modification of specific bases was detected by primer extension. Under these conditions, DMS and kethoxal are single strand-specific, and thus the modification pattern of RNA alone provides an indication of secondary structure.

[3] = test system: Rev-RRE interaction (splicing of RRE-containing pre-mRNA); experiment: Rev function in vitro: Rev-mediated repression of splicing; assay type: biochemical, HIV; details: RRE-containing pre-mRNA, Rev derivative
Experimental: The experiments described above measured the ability of 2-DOS antibiotics to interfere with binding of purified Rev to RNA. […] This hypothesis was tested by analyzing Rev function in vitro. In this assay, inhibition of splicing requires both a Rev derivative that can bind RNA, as well as a pre-mRNA containing the RRE. Thus, splicing repression is dependent upon the Rev-RRE interaction. Because neomycin B inhibited Rev binding, it was believed that the drug would reverse splicing repression.

Rev function = Rev function in vivo: cotransfection assay with CAT reporter plasmid pCM128; assay type: cell-based, HIV; details: cotransfection of pCM128 with a Rev expression plasmid
Experimental: The experiments described below were performed to determine whether or not the inhibitory 2-DOS antibiotics antagonize Rev function in vivo. Rev function was measured in a cotransfection assay using the chloramphenicol acetytransferase (CAT) reporter plasmid pCM128, which has a single intron containing both the RRE and the bacterial CAT coding sequence (Hope et al., Proc. Natl. Acad. Sci. USA, 87:7787-7791 (1990)). Normally, the intron is efficiently excised by splicing; therefore, cells transfected with pCM128 express only trace amounts of CAT enzyme activity. Cotransfection with a Rev expression plasmid permits unspliced transcripts to enter the cytoplasm, and thus CAT expression is increased.

[4] = test system: β-galactosidase reporter gene; experiment: Cotransfected β-galactosidase reporter gene expression; assay type: cell-based; details: concentrations that inhibited Rev function
From the text: (§1) First, at all concentrations of antibiotics tested, cellular viability and growth were normal, and total cellular protein synthesis (as monitored by incorporation of [^35 S]methionine into protein) was not inhibited. […] Thus, inhibition of Rev function is not due to interference with CAT gene expression at the transcriptional or posttranscriptional level. The failure to inhibit Tat is particularly relevant, because transcription activation involves an RNA-protein interaction between Tat and trans-acting responsive sequences.

[5] = test system: cytomegalovirus (CMV)-CAT reporter; experiment: CMV-CAT reporter expression; assay type: cell-based; details: comparable concentrations
From the text: as §1

[6] = test system: HIV Tat-mediated activation of an HIV LTR-CAT reporter gene; experiment: HIV Tat-mediated activation of HIV LTR-CAT reporter; assay type: cell-based; details: comparable concentrations
From the text: as §1

HIV = HIV production (p24) in chronically infected U1 cells; assay type: cell-based; details: Human immunodeficiency virus 1, read-out: inhibition of viral production (p24 in the culture medium)
Experimental: The experiment described below was performed to test whether or not neomycin B inhibits production of HIV in an infected cell. A chronically HIV-infected cell line, U1, was used. This cell line has been previously used as a model to study Rev-dependent activation of viral production. (Pomerantz, et al., Cell, 61:1271-1276 (1990); Michael, et al., J. Virol., 55:1291-1303, (1991)).
Viral production was assessed after exposure of cells to increasing concentrations of neomycin B, using a standard assay that quantifies the amount of an HIV structure protein, p24, in the culture medium.

in vitro = assay type: cell-based; details: human; U1 cells, all concentrations (0-2.5 mM); read-out: cellular growth, of the untreated control
[7] = test system: binding of Rev to the RRE (67-nt RNA probe containing a high affinity Rev-binding site); design: species or system HIV; details: 1 μM drug

Question: With `NC[C@@H]1O[C@H](O[C@H]2[C@@H](O)[C@H](O[C@@H]3[C@@H](O)[C@H](N)C[C@H](N)[C@H]3O[C@H]3O[C@H](CN)[C@@H](O)[C@H](O)[C@H]3N)O[C@@H]2CO)[C@H](N)[C@@H](O)[C@@H]1O` [neomycin B] as the compound, how does the “ability to inhibit Rev binding (inhibitory at any concentration tested)” value [1] read?
Answer: Its value is “significant inhibitory ability”.

Question: What about the “ability to inhibit Rev binding (inhibitory at any concentration tested)” value ([1]; listed as Neomycin B) of the same compound?
Answer: The value was “the most potent inhibitor”.

Question: And the “concentration that achieves inhibition of Rev binding” value ([1]; 67-nt RNA probe, neomycin B: complete inhibition)?
Answer: The value was 1 µM.

Question: What about the “inhibiting the binding of Rev to the RRE” value ([1]; Rev/RRE binding inhibition assay, summary of thirteen 2-DOS aminoglycosides) of the same compound?
Answer: The value was “exceptional inhibitory potential”.

Question: And the “DNA binding activity of ATF-2 to the HTLV-1 LTR” value [2]?
Answer: The value was “remained unchanged”.

Question: And the “protection of the RRE from chemical modification” value (67-nt RRE RNA)?
Answer: The value was “strongly protected residues 46-48”.

Question: What about the “concentration that counteracted the Rev-mediated repression of splicing” value [3] of the same compound?
Answer: The value was 1.0 to 2.5 µM.

Question: And the “Rev function (CAT expression)” value (Rev function)?
Answer: The value was “dose-dependent inhibition”.

Question: And the “expression of a cotransfected β-galactosidase reporter gene” value [4]?
Answer: Its value is “did not inhibit”.

Question: And the “expression of a cytomegalovirus (CMV)-CAT reporter” value [5]?
Answer: Its value is “did not inhibit”.

Question: What about the “HIV Tat-mediated activation of an HIV LTR-CAT reporter gene” value [6] of the same compound?
Answer: Its value is “did not inhibit”.

Question: What about the inhibition at 2500 µM (HIV) of the same compound?
Answer: The inhibition at 2500 µM was roughly 85%.

Question: What about the activity (in vitro) of the same compound?
Answer: Its activity is 94 to 108%.

Question: What about the “binding of Rev to a 33-nt RNA probe that contained a high affinity binding site” value [7] of the same compound?
Answer: Its value is “inhibited”.

Question: What about the “binding of Rev to a 234-nt RRE that supports a Rev response in vivo” value [7] of the same compound?
Answer: Its value is “inhibited”.
